Assay results as given in ChEMBL document CHEMBL5528052, “Single Deletion Unmasks Hidden Anti-Gram-Negative Bacterial Activity of an Insect Defensin-Derived Peptide” (J Med Chem, 2024).
Calls of active or inactive are those of the source. The rule behind the calls is not given here. Peptide text beside a SMILES is read from it.

Key:
Pseudomonas aeruginosa [1] = test: Antimicrobial activity against Pseudomonas aeruginosa 11082603 assessed as lethal concentration; assay type: functional
Erythrocyte = test: Hemolytic activity in mouse erythrocytes assessed as hemolysis at 100 uM; assay type: toxicity, cell-based
[2] = Retention time of the compound by RP-HPLC analysis; assay type: physicochemical
Micrococcus luteus [3] = test: Antimicrobial activity against Micrococcus luteus in presence of NaCl; assay type: functional, organism-based
Pseudomonas aeruginosa [4] = test: Antimicrobial activity against Pseudomonas aeruginosa 374 assessed as lethal concentration; assay type: functional
Cell membrane [5] = test: Induction of membrane disruption in Staphylococcus epidermidis incubated for 90 mins by SEM analysis; assay type: cell membranes
Pseudomonas aeruginosa [6] = test: Antimicrobial activity against Pseudomonas aeruginosa assessed as lethal concentration; assay type: functional
Streptococcus mutans [7] = test: Antimicrobial activity against Streptococcus mutans ATCC 1.2499 assessed as lethal concentration; assay type: functional
Staphylococcus [8] = test: Antimicrobial activity against methicillin-resistant coagulase negative Staphylococcus P1369 at 0.25 to 1 nmol; assay type: functional, organism-based; conditions: dose 0.25-1 nmol
Curtobacterium luteum = test: Antimicrobial activity against Curtobacterium luteum assessed as lethal concentration; assay type: functional
Salmonella enterica [9] = test: Antimicrobial activity against Salmonella enterica ATCC 14028 at 0.25 to 1 nmol; assay type: functional, organism-based; conditions: dose 0.25-1 nmol
Pseudomonas aeruginosa [10] = test: Antimicrobial activity against Pseudomonas aeruginosa QT1 assessed as lethal concentration; assay type: functional
Staphylococcus aureus [11] = test: Antimicrobial activity against penicillin-resistant Staphylococcus aureus P1383 assessed as lethal concentration; assay type: functional
Micrococcus luteus [12] = test: Antimicrobial activity against Micrococcus luteus in presence of human serum; assay type: functional, organism-based
Pseudomonas aeruginosa [13] = test: Antimicrobial activity against Pseudomonas aeruginosa DH assessed as lethal concentration; assay type: functional
[14] = test system: Staphylococcus epidermidis; test: Antimicrobial activity against penicillin-resistant Staphylococcus epidermidis P1389 assessed as lethal concentration; assay type: functional
Komagataella pastoris = test: Antifungal activity against Pichia pastoris X33 assessed as lethal concentration; assay type: functional
Cell membrane [15] = test: Disruption of outer membrane integrity in […] by NPN uptake assay; assay type: cell membranes
Salmonella enterica [16] = test: Antimicrobial activity against Salmonella enterica ATCC 14028 assessed as lethal concentration; assay type: functional
Escherichia coli [17] = test: Antimicrobial activity against Escherichia coli DH5alpha assessed as lethal concentration; assay type: functional
Streptococcus mutans [18] = test: Antimicrobial activity against Streptococcus mutans ATCC 1.2499 at 1 nmol relative to control; assay type: functional, organism-based
Ralstonia solanacearum = test: Antimicrobial activity against Ralstonia solanacearum assessed as lethal concentration; assay type: functional
Streptococcus salivarius = test: Antimicrobial activity against Streptococcus salivarius ATCC 1.2498 assessed as lethal concentration; assay type: functional
Geotrichum candidum = test: Antifungal activity against Geotrichum candidum CCTCC AY 93038 assessed as lethal concentration; assay type: functional
Escherichia coli [19] = test: Antimicrobial activity against Escherichia coli J16c assessed as lethal concentration; assay type: functional
Escherichia coli [20] = test: Antimicrobial activity against Escherichia coli J45b assessed as lethal concentration; assay type: functional
Pseudomonas aeruginosa [21] = test: Antimicrobial activity against Pseudomonas aeruginosa FRD1 assessed as lethal concentration; assay type: functional
Staphylococcus [22] = test: Antimicrobial activity against methicillin-resistant coagulase negative Staphylococcus P1369 assessed as lethal concentration; assay type: functional
[23] = test system: Stenotrophomonas maltophilia; test: Antimicrobial activity against Stenotrophomonas maltophilia CGMCC 1.1788 assessed as lethal concentration; assay type: functional
Pseudomonas aeruginosa [24] = test: Antimicrobial activity against Pseudomonas aeruginosa 11092304 assessed as lethal concentration; assay type: functional
Pseudomonas aeruginosa [25] = test: Antimicrobial activity against Pseudomonas aeruginosa 11092618 assessed as lethal concentration; assay type: functional
Staphylococcus warneri = test: Antimicrobial activity against Staphylococcus warneri ATCC 1.2824 assessed as lethal concentration; assay type: functional
Bacillus subtilis = test: Antimicrobial activity against Bacillus subtilis CGMCC 1.2428 assessed as lethal concentration; assay type: functional
Cell membrane [26] = test: Induction of cytoplasmic membrane disruption in Bacillus megaterium assessed as increase in fluorescence intensity by NPN uptake assay; assay type: cell membranes; conditions: Priestia megaterium
Escherichia coli [27] = test: Antimicrobial activity against Escherichia coli J14b assessed as lethal concentration; assay type: functional
Staphylococcus aureus [28] = test: Antimicrobial activity against methicillin-resistant Staphylococcus aureus P1374 assessed as lethal concentration; assay type: functional
[29] = Stability of compound in PBS at pH 7 measured after 3 days; assay type: physicochemical; conditions: buffer, pH 7, 72 h; time 3 day
HEK293 = test: Cytotoxicity against HEK293 cells assessed as reduction in cell viability at 200 microg/ml incubated for 48 hrs by CCK-8 assay; assay type: toxicity, cell-based; conditions: human, hek293, 48 h, dose 200 µg/ml
Cell membrane [30] = test: Induction of membrane disruption in Staphylococcus epidermidis incubated for 30 mins by transmission electron microscopic analysis; assay type: cell membranes
Pseudomonas aeruginosa [31] = test: Antimicrobial activity against Pseudomonas aeruginosa O1 assessed as lethal concentration; assay type: functional
[32] = Solubility of compound in guanidine hydrochloride at 1 mg/ml by RP-HPLC analysis; assay type: physicochemical
Escherichia coli [33] = test: Antimicrobial activity against Escherichia coli J23a assessed as lethal concentration; assay type: functional
Alcaligenes faecalis = test: Antimicrobial activity against Alcaligenes faecalis CGMCC 1.1837 assessed as lethal concentration; assay type: functional
Escherichia coli [34] = test: Antimicrobial activity against Escherichia coli G2b assessed as lethal concentration; assay type: functional
Streptococcus sanguinis = test: Antimicrobial activity against Streptococcus sanguinis ATCC 1.2497 assessed as lethal concentration; assay type: functional
Priestia megaterium = test: Antimicrobial activity against Bacillus megaterium CGMCC 1.0459 assessed as lethal concentration; assay type: functional
Staphylococcus aureus [35] = test: Antimicrobial activity against methicillin-resistant Staphylococcus aureus P1386 assessed as lethal concentration; assay type: functional
[36] = Solubility of compound in water at 1 nmol by RP-HPLC analysis; assay type: physicochemical; conditions: buffer
Pseudomonas aeruginosa [37] = test: Antimicrobial activity against Pseudomonas aeruginosa 11082616 assessed as lethal concentration; assay type: functional
[38] = test system: Lysinibacillus fusiformis; test: Antimicrobial activity against Lysinibacillus fusiformis assessed as lethal concentration; assay type: functional
Micrococcus luteus [39] = test: Antimicrobial activity against Micrococcus luteus CGMCC 1.0290 assessed as lethal concentration; assay type: functional
Staphylococcus aureus [40] = test: Antimicrobial activity against Staphylococcus aureus J685 assessed as lethal concentration; assay type: functional

CC[C@H](C)[C@H](NC(=O)[C@H](CCCCN)NC(=O)[C@H](CC(N)=O)NC(=O)[C@H](CC(N)=O)NC(=O)[C@H](CS)NC(=O)[C@H](Cc1ccc(O)cc1)NC(=O)[C@H](CS)NC(=O)[C@@H](NC(=O)[C@H](C)N)[C@@H](C)O)C(=O)N[C@@H](CS)C(=O)N[C@H](C(=O)N[C@@H](CS)C(=O)N[C@@H](CCCNC(=N)N)C(=O)N[C@@H](CCCNC(=N)N)C(N)=O)C(C)C (H-ATCYCNNKICVCRR-NH2)
LD (Pseudomonas aeruginosa [1]): 15.38 µM | Activity (Erythrocyte): Non-Toxic | Retention_time [2]: 14.5 min | Activity (Micrococcus luteus [3]): Active | LD (Pseudomonas aeruginosa [4]): 35.1 µM | Activity (Cell membrane [5]): Active | LD (Pseudomonas aeruginosa [6]): 7.32 µM | LD (Streptococcus mutans [7]): 3.22 µM | Activity (Staphylococcus [8]): Active | LD (Curtobacterium luteum): 0.87 µM | Activity (Salmonella enterica [9]): Active | LD (Pseudomonas aeruginosa [10]): 22.87 µM | LD (Staphylococcus aureus [11]): 1.17 µM | Activity (Micrococcus luteus [12]): Active | LD (Pseudomonas aeruginosa [13]): 49.32 µM | LD [14]: 12.79 µM | LD (Komagataella pastoris): 7.86 µM | Activity (Cell membrane [15]): Active | LD (Salmonella enterica [16]): 4.88 µM | LD (Escherichia coli [17]): 21.42 µM | Activity (Streptococcus mutans [18]): inactive | LD (Ralstonia solanacearum): 17.5 µM | LD (Streptococcus salivarius): 2.51 µM | LD (Geotrichum candidum): 9.62 µM | LD (Escherichia coli [19]): 7.86 µM | LD (Escherichia coli [20]): 7.14 µM | LD (Pseudomonas aeruginosa [21]): 21.95 µM | LD (Staphylococcus [22]): 0.27 µM | LD [23]: 21.72 µM | LD (Pseudomonas aeruginosa [24]): 43.43 µM | LD (Pseudomonas aeruginosa [25]): 75.89 µM | LD (Staphylococcus warneri): 4.17 µM | LD (Bacillus subtilis): 2.6 µM | Activity (Cell membrane [26]): Active | LD (Escherichia coli [27]): 12.9 µM | LD (Staphylococcus aureus [28]): 4.62 µM | Stability [29]: Stable | Activity (HEK293): Non-Toxic | Activity (Cell membrane [30]): Active | LD (Pseudomonas aeruginosa [31]): 21.42 µM | solubility [32]: Soluble | LD (Escherichia coli [33]): 7.86 µM | LD (Alcaligenes faecalis): 10.4 µM | LD (Escherichia coli [34]): 12.9 µM | LD (Streptococcus sanguinis): 2.58 µM | LD (Priestia megaterium): 1.23 µM | LD (Staphylococcus aureus [35]): 3.46 µM | solubility [36]: Soluble | LD (Pseudomonas aeruginosa [37]): 35.1 µM | LD [38]: 0.63 µM | LD (Micrococcus luteus [39]): 2.6 µM | LD (Staphylococcus aureus [40]): 7.01 µM
